# Reference: ChEMBL document CHEMBL1821642, “Discovery of 7-hydroxy-6-methoxy-2-methyl-3-(3,4,5-trimethoxybenzoyl)benzo[b]furan (BNC105), a tubulin polymerization inhibitor with potent antiproliferative and tumor vascular disrupting properties” (J Med Chem, 2011)
# The source made the active and inactive calls. The calls are words filed in the database; no cut-off is given here.
# How the values were obtained:
# MCF7 = test: Antiproliferative activity against human MCF7 cells assessed after 48 hrs by spectrophotometry; type: functional, cell-based; details: MCF7, 48 h
# HUVEC [1] = test: Selectivity ratio of IC50 for HUVEC grown in absence of growth factors to IC50 for HUVEC grown in presence of growth factors; type: functional, Homo sapiens
# HUVEC [2] = test: Antiproliferative activity against HUVEC grown in absence of growth factors after 48 hrs by spectrophotometry; type: functional, cell-based; details: Homo sapiens
# HUVEC [3] = test: Antiproliferative activity against HUVEC grown in presence of growth factors after 48 hrs by spectrophotometry; type: functional, cell-based; details: Homo sapiens
# 786-0 [4] = test: Antiproliferative activity against MDR-1 overexpressing human 786-0 cells in presence of MDR1 inhibitor verapamil; type: functional, cell-based
# 786-0 [5] = test: Antiproliferative activity against MDR-1 overexpressing human 786-0 cells; type: functional, cell-based
# Rattus norvegicus [6] = test: Volume of distribution at steady state in Sprague-Dawley rat at 6 umol/kg, iv; type: ADME, organism-based; details: in vivo
# [7] = Cytotoxicity against human A2780/ADR cells; type: functional, cell-based
# LoVo = test: Antiproliferative activity against human LoVo after 48 hrs by spectrophotometry; type: functional, cell-based
# [8] = Drug uptake in tumor of MDA-MB-231 breast cancer BALB/c mouse model at 1 to 150 mg/kg, iv measured after 24 hrs; type: ADME, organism-based; design: dose 1-150 mg/kg, route intravenous; details: in vivo
# BT-549 = test: Antiproliferative activity against human BT549 after 48 hrs by spectrophotometry; type: functional, cell-based; details: BT-549, 48 h
# A-375 = test: Antiproliferative activity against human A375 after 48 hrs by spectrophotometry; type: functional, cell-based; details: A-375, 48 h
# MDA-MB-231 [9] = test: Antiproliferative activity against human MDA-MB-231 after 48 hrs by spectrophotometry; type: functional, cell-based; details: MDA-MB-231, 48 h
# [10] = Inhibition of tubulin polymerization by spectrophotometry
# [11] = Antiproliferative activity against human HAAE1 grown in presence of growth factors after 48 hrs by spectrophotometry; type: functional
# A2780 = test: Cytotoxicity against human A2780 cells; type: functional, cell-based
# AU565 = test: Antiproliferative activity against human AU565 after 48 hrs by spectrophotometry; type: functional, cell-based; details: AU565, 48 h
# Rattus norvegicus [12] = test: Half life in Sprague-Dawley rat at 6 umol/kg, iv; type: ADME, organism-based; details: in vivo
# DU-145 = test: Antiproliferative activity against human DU145 after 48 hrs by spectrophotometry; type: functional, cell-based; details: DU-145, 48 h
# SK-OV-3 = test: Antiproliferative activity against human SKOV3 after 48 hrs by spectrophotometry; type: functional, cell-based; details: SK-OV-3, 48 h
# [13] = Antiproliferative activity against human HAAE1 grown in absence of growth factors after 48 hrs by spectrophotometry; type: functional
# [14] = Cytotoxicity against human A2780cis cells; type: functional, cell-based; details: A2780cisR
# [15] = Aqueous solubility of the compound; type: physicochemical; details: buffer
# [16] = Antiproliferative activity against human U87MG after 48 hrs by spectrophotometry; type: functional, U-87MG ATCC; details: U-87 MG
# Calu-6 = test: Antiproliferative activity against human Calu6 after 48 hrs by spectrophotometry; type: functional, cell-based; details: Calu-6, 48 h
# MDA-MB-231 [17] = test: Antitumor activity against human MDA-MB-231 xenografted in mouse assessed as tumor growth inhibition at 10 mg/kg administered on day 1 and 5; type: functional, organism-based; design: dose 10 mg/kg
# MDA-MB-231 [18] = test: Antitumor activity against human MDA-MB-231 xenografted in mouse assessed as tumor growth inhibition at 40 mg/kg administered on day 1 and 8 measured after 70 days; type: functional, organism-based; design: dose 40 mg/kg
# Plasma = test: Plasma protein binding in Sprague-Dawley rat at 6 umol/kg, iv; type: ADME, cell-free
# A-431 = test: Antiproliferative activity against human A431 after 48 hrs by spectrophotometry; type: functional, cell-based; details: A-431, 48 h
# MDA-MB-231 [19] = test: Antitumor activity against human MDA-MB-231 xenografted in mouse assessed as tumor growth inhibition at 150 mg/kg administered on day 1 and 5; type: functional, organism-based; design: dose 150 mg/kg
compound,measurement,setting,value
COc1ccc2c(C(=O)c3cc(OC)c(OC)c(OC)c3)c(N3CCN(C)CC3)oc2c1,IC50,MCF7,215 nM
same,Ratio IC50,HUVEC [1],0.8
same,IC50,HUVEC [2],405 nM
same,IC50,HUVEC [3]; read-out: IC50,484 nM
CC(=O)O[C@H]1C(=O)[C@@]2(C)[C@H]([C@H](OC(=O)c3ccccc3)[C@]3(O)C[C@H](OC(=O)[C@H](O)[C@@H](NC(=O)c4ccccc4)c4ccccc4)C(C)=C1C3(C)C)[C@]1(OC(C)=O)CO[C@@H]1C[C@@H]2O [PACLITAXEL],IC50,786-0 [4],4 nM
same,IC50,786-0 [5],31 nM
COc1ccc2c(C(=O)c3cc(OC)c(OC)c(OC)c3)c(Br)oc2c1,Ratio IC50,HUVEC [1],0.6
same,IC50,HUVEC [2],309 nM
same,IC50,HUVEC [3]; read-out: IC50,510 nM
COc1cc(C(=O)c2coc3c(O)c(OC)ccc23)cc(OC)c1OC,IC50,MCF7,45 nM
same,IC50,HUVEC [2],322 nM
same,IC50,HUVEC [3]; read-out: IC50,83 nM
COc1cc(C(=O)c2c(-c3cccs3)oc3c(O)c(OC)ccc23)cc(OC)c1OC,IC50,MCF7,0.5 nM
same,Ratio IC50,HUVEC [1],1.2
same,IC50,HUVEC [2],0.36 nM
same,IC50,HUVEC [3]; read-out: IC50,0.31 nM
COc1cc(C(=O)c2c(C)oc3c(O)c(OC)ccc23)cc(OC)c1OC,Vdss,Rattus norvegicus [6],7.1 L/kg
same,IC50,[7],0.06 nM
same,IC50,LoVo,0.24 nM
same,Drug uptake,[8],64%
same,IC50,MCF7,2.4 nM
same,IC50,BT-549,0.34 nM
same,IC50,A-375,1.5 nM
same,IC50,MDA-MB-231 [9],0.63 nM
same,IC50,[10],3000 nM
same,IC50,[11],0.1 nM
same,IC50,A2780,0.03 nM
same,IC50,AU565,5.8 nM
same,t1/2,Rattus norvegicus [12],3.5 h
same,IC50,DU-145,0.36 nM
same,IC50,SK-OV-3,0.59 nM
same,IC50,[13],12 nM
same,IC50,HUVEC [2],25 nM
same,IC50,[14],0.01 nM
same,solubility,[15],Insoluble
same,IC50,[16],0.41 nM
same,IC50,Calu-6,0.16 nM
same,IC50,HUVEC [3]; read-out: IC50,0.31 nM
COc1ccc2c(C(=O)c3cc(OC)c(OC)c(OC)c3)coc2c1,IC50,MCF7,55 nM
same,Ratio IC50,HUVEC [1],1.4
same,IC50,[10],1600 nM
same,IC50,HUVEC [2],63 nM
same,IC50,HUVEC [3]; read-out: IC50,45 nM
COc1ccc(-c2oc3c(O)c(OC)ccc3c2C(=O)c2cc(OC)c(OC)c(OC)c2)cc1O,IC50,MCF7,4 nM
same,Ratio IC50,HUVEC [1],2
same,IC50,[10],800 nM
same,IC50,HUVEC [2],3.4 nM
same,IC50,HUVEC [3]; read-out: IC50,1.7 nM
COc1ccc(-c2sccc2C(=O)c2cc(OC)c(OC)c(OC)c2)cc1O,IC50,[10],1000 nM
COC(=O)/C=C/c1oc2c(O)c(OC)ccc2c1C(=O)c1cc(OC)c(OC)c(OC)c1,Ratio IC50,HUVEC [1],6
same,IC50,HUVEC [2],2.3 nM
same,IC50,HUVEC [3]; read-out: IC50,0.38 nM
COc1ccc2c(C(=O)c3cc(OC)c(OC)c(OC)c3)c(-c3ccc(O)cc3)oc2c1,IC50,MCF7,48 nM
same,Ratio IC50,HUVEC [1],1.1
same,IC50,[10],2300 nM
same,IC50,HUVEC [2],34 nM
same,IC50,HUVEC [3]; read-out: IC50,30 nM
COc1cc(C(=O)c2c(-n3cccc3)oc3c(O)c(OC)ccc23)cc(OC)c1OC,IC50,HUVEC [2],3.3 nM
COc1cc(C(=O)c2c(/C=C/C(N)=O)oc3c(O)c(OC)ccc23)cc(OC)c1OC,Ratio IC50,HUVEC [1],0.9
same,IC50,HUVEC [2],2.3 nM
same,IC50,HUVEC [3]; read-out: IC50,2.6 nM
COc1ccc2c(C(=O)c3cc(OC)c(OC)c(OC)c3)c(-c3ccc4c(ccn4C)c3)oc2c1,Ratio IC50,HUVEC [1],0.8
same,IC50,[10],1300 nM
same,IC50,HUVEC [2],32 nM
same,IC50,HUVEC [3]; read-out: IC50,41 nM
COc1cc(C(=O)c2c(NCCO)oc3c(O)c(OC)ccc23)cc(OC)c1OC,Ratio IC50,HUVEC [1],0.9
same,IC50,HUVEC [2],2.9 nM
same,IC50,HUVEC [3]; read-out: IC50,3.1 nM
COc1cc(C(=O)c2c(N)oc3c(O)c(OC)ccc23)cc(OC)c1OC,Ratio IC50,HUVEC [1],4.6
same,IC50,HUVEC [2],8.8 nM
same,IC50,HUVEC [3]; read-out: IC50,1.9 nM
COc1ccc2c(C(=O)c3cc(OC)c(OC)c(OC)c3)c(-c3ccc(OC)nc3)oc2c1,IC50,MCF7,71 nM
same,Ratio IC50,HUVEC [1],0.6
same,IC50,HUVEC [2],27 nM
same,IC50,HUVEC [3]; read-out: IC50,45 nM
CC[C@]1(O)C[C@@H]2CN(CCc3c([nH]c4ccccc34)[C@@](C(=O)OC)(c3cc4c(cc3OC)N(C)[C@H]3[C@@](O)(C(=O)OC)[C@H](OC(C)=O)[C@]5(CC)C=CCN6CC[C@]43[C@@H]65)C2)C1 [VINBLASTINE],IC50,786-0 [4],0.31 nM
same,IC50,786-0 [5],4.5 nM
COc1cc(C(=O)c2c(C#N)oc3c(O)c(OC)ccc23)cc(OC)c1OC,Ratio IC50,HUVEC [1],2.7
same,IC50,HUVEC [2],3 nM
same,IC50,HUVEC [3]; read-out: IC50,1.1 nM
CC[C@]1(O)C[C@H]2CN(CCc3c([nH]c4ccccc34)[C@@](C(=O)OC)(c3cc4c(cc3OC)N(C=O)[C@H]3[C@@](O)(C(=O)OC)[C@H](OC(C)=O)[C@]5(CC)C=CCN6CC[C@]43[C@@H]65)C2)C1 [VINCRISTINE],IC50,786-0 [4],1.2 nM
same,IC50,786-0 [5],37 nM
COc1cc(C(=O)c2c(-c3cnn(C)c3)oc3c(OC(C)C)c(OC)ccc23)cc(OC)c1OC,IC50,MCF7,42 nM
same,Ratio IC50,HUVEC [1],0.6
same,IC50,HUVEC [2],419 nM
same,IC50,HUVEC [3]; read-out: IC50,665 nM
COc1cc(C(=O)c2c(NCCN(C)C)oc3c(O)c(OC)ccc23)cc(OC)c1OC,Ratio IC50,HUVEC [1],1.2
same,IC50,HUVEC [2],36 nM
same,IC50,HUVEC [3]; read-out: IC50,29 nM
COc1ccc2c(C(=O)c3cc(OC)c(OC)c(OC)c3)c(-c3ccc(OC)c(N)c3)oc2c1,IC50,MCF7,26 nM
same,Ratio IC50,HUVEC [1],1.4
same,IC50,[10],1900 nM
same,IC50,HUVEC [2],44 nM
same,IC50,HUVEC [3]; read-out: IC50,32 nM
COc1cc(C(=O)c2c(C)oc3c(OP(=O)([O-])[O-])c(OC)ccc23)cc(OC)c1OC.[Na+].[Na+],growth inhibition (GI),MDA-MB-231 [17],Active
same,growth inhibition (GI),MDA-MB-231 [18],Active
same,solubility,[15],soluble
COc1cc(C(=O)c2c(-c3cnn(C)c3)oc3c(O)c(OC)ccc23)cc(OC)c1OC,IC50,MCF7,1 nM
same,Ratio IC50,HUVEC [1],1.8
same,IC50,[10],1300 nM
same,IC50,HUVEC [2],0.7 nM
same,IC50,HUVEC [3]; read-out: IC50,0.4 nM
COc1ccc(/C=C\c2cc(OC)c(OC)c(OC)c2)cc1O [COMBRETASTATIN A4],Vdss,Rattus norvegicus [6],7.3 L/kg
same,IC50,BT-549,3.5 nM
same,IC50,AU565,4.4 nM
same,t1/2,Rattus norvegicus [12],0.7 h
same,IC50,DU-145,4 nM
same,IC50,HUVEC [2],3.9 nM
same,PPB,Plasma,98.9%
same,IC50,A-431,188 nM
same,IC50,Calu-6,0.94 nM
same,IC50,HUVEC [3],3.6 nM
COc1cc(C(=O)c2c(-c3ccco3)oc3c(O)c(OC)ccc23)cc(OC)c1OC,IC50,MCF7,0.6 nM
same,Ratio IC50,HUVEC [1],0.9
same,IC50,[10],8700 nM
same,IC50,HUVEC [2],3.4 nM
same,IC50,HUVEC [3]; read-out: IC50,3.6 nM
COc1ccc(/C=C\c2cc(OC)c(OC)c(OC)c2)cc1OP(=O)(O)O,growth inhibition (GI),MDA-MB-231 [19],Active
